Source: patent US9895370B2, “Pharmaceutical composition for preventing or treating of cirrhosis of liver comprising G protein coupled receptor 119 ligand as an active ingredient” (DONGGUK UNIVERSITY INDUSTRY—ACADEMIC COOPERATION FOUNDATION, priority 2015, dated 2018)

System: human HSC line LX-2
Test: TGFβ1-inducible collagen I and TGFβ expression in LX-2
Format: cell-based
Settings: LX-2 treated with TGFβ1; FIGS. 2c, 2d
Procedure: A human HSC line (LX-2, Milipore, U.S.A.) was plated in a 6-well plate, and grown to confluency in DMEM supplemented with 1% penicillin-streptomycin (Hyclone, U.S.A.) and 2% fetal bovine serum (Hyclone, U.S.A.) at 37° C. in a 5% CO2 incubator. For a further experiment, the confluent HSC line was incubated in an FBS-free medium, instead of the 2% FBS-added medium.
Total RNA ([…]) extracted from cells using Trizol and a Maxime RT PreMix Kit (iNtRON Biotechnology, Gyeonggi-do, Korea) was used to obtain cDNA. For RT-PCR, a target gene was amplified by PCR using a Maxime™ PCR PreMix Kit according to the manufacturer's instructions, and subjected to electrophoresis in a 2% agrose gel, thereby identifying the amplified PCR product.
Meanwhile, for real-time RT-qPCR, the synthesized cDNA was assessed in a CFX Connect™ Real-Time PCR Detection System (Bio-Rad Laboratories, CA, USA) instrument using a SYBR green dye (Bio-Rad). The CP value of the gene was calibrated with the CP value of S 18r gene. Also, through a melting curve analysis, specificity of the amplified PCR product was confirmed.
Sodium dodecylsulfate-polyacrylamide gel electrophoresis (SDS-PAGE) was performed using a gel electrophoresis device (Mighty Small SE 250, Hoefer Scientific Instruments, San Francisco) according to the method established by the inventors. A lysed cell fraction was diluted with a sample dilution buffer [63 mM Tris (pH. 6.8), 10% glycerol, 2% SDS, 0.0013% bromophenol blue, 5% β-mercaptoethanol], and subjected to electrophoresis in an electrode buffer (15 g Tris, 72 g glycerin and 5 g SDS contained in an 1 L solution) using a 8-12% gel. After electrophoresis, the gel was transferred to a nitrocellulose membrane to transfer proteins using an electrophoresis device for transfer in a transfer buffer (25 mM Tris, 192 mM glycerin, 20% v/v methanol (pH. 8.3)] at 40 mA for 3 hours. The nitrocellulose membrane was reacted with first antibodies, reacted with horseradish peroxidase-conjugated goat anti-rabbit IgG and horseradish peroxidase-conjugated goat anti-mouse IgG as secondary antibodies for 1 hour, and visualized using an ECL chemiluminescence system (Amersham, Gaithesberg, Mass.).
A critical cytokine having an influence on the induction of liver fibrosis, TGFβ1, is a potent fibrosis stimulation factor for HSCs. To examine the expression of a liver fibrosis-inducing factor which was increased when the human liver cell line LX-2, cultured by method D was treated with TGFβ1, changes in expression according to the treatment with GPR119 ligands (MBX-2982, GSK1292263) were assessed by the methods described in G and H, thereby observing the effect of the GPR119 ligands.

With `CC(C)c1noc(N2CCC(COc3ccc(-c4ccc(S(C)(=O)=O)cc4)nc3)CC2)n1` [GSK1292263, 3-isopropyl-5-(4-(((6-(4-(methylsulfonyl)phenyl)pyridin-3-yl)oxy)methyl)piperidin-1-yl)-1,2,4-oxadiazole] the “expression of TGFβ1-inducible TGFβ” value was “inhibited” and the “expression of TGFβ1-inducible collagen I” value was “inhibited”.
